Measurements taken from patent US20140288110A1, “PPAR MODULATORS” (EVOLVA SA, priority 2006, published 2014).

Assays:
Format in all cases: cell-based
human pre-adipocytes = experiment: Adipocyte differentiation assay using human pre-adipocytes; conditions: similar to DMSO
hRXRαLBD = biological target: T1, hRXRαLBD (Homo sapiens, UniProt P19793); experiment: RXR transactivation assay (hRXRαLBD)
T1 construct: expressed in transfected cells
T1 sequence (P19793 227-458 limits assumed): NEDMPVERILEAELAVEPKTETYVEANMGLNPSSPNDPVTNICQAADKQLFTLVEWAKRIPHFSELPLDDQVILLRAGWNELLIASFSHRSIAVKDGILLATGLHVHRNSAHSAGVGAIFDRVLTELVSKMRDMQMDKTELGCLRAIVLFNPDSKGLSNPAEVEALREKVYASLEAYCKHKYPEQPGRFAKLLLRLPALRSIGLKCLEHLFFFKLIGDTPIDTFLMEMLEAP
Protocol: This example describes a retinoic acid X receptor transactivation assay.
Compounds are tested for their ability to transactivate RXR essentially as described in Example 1.

[1] = system: PPARgamma ligand-binding domain (Gal4-PPARgammaLBD); experiment: PPARgamma transactivation assay (Gal4-PPARgammaLBD, UASx4-TK luc reporter)
Excerpt: This is an example of a transactivation assay for determining PPAR gamma modulating activity.
The UASx4-TK-luc reporter construct (where UAS refers to “upstream activator sequence”) contains four Gal4-responsive elements. The plasmid Gal4-PPARgammaLBD encodes a Gal4-DBD-PPARgamma-LBD fusion protein (i.e. the DNA-binding domain, DBD, of Gal4 fused to the ligand-binding domain, LBD, of PPARgamma) capable of transactivating the UASx4-TK-luc reporter plasmid by binding to the UAS. The CMV-beta-galactosidase plasmid (where CMV is cytomegalovirus) is used for normalization of experimental values.
The cells were replated, typically in 24 well plates, so that at the time of transfection the cells are 50-70% confluent.
Briefly, per well in a 24 well plate, UASx4TKluc (0.2 microg) Gal4-PPARgammaLBD (or pM-hPPARgamma-LBD; 0.1 microg) and CMV-beta-galactosidase (0.05 microg) in 30 μL DMEM (free of serum and antibiotics) is mixed with 30 microL DMEM (free of serum and antibiotics) containing 1 microL metafectenein. The mixture is incubated at room temperature for 20 min to allow formation of nucleic acid-lipid complexes and then approximately 60 microL is added to each well containing the 50-60% confluent cells. […] Cells were harvested after 12-24 hours and luciferase and beta-galactosidase activities were measured according to standard protocols.
“−” means that testing was not performed.

full-length hPPARdelta = biological target: T2, full-length hPPARdelta (Homo sapiens, UniProt Q03181); experiment: Transactivation assay with full length human PPAR delta
T2 construct: expressed in transfected cells
T2 sequence (Q03181 1-441): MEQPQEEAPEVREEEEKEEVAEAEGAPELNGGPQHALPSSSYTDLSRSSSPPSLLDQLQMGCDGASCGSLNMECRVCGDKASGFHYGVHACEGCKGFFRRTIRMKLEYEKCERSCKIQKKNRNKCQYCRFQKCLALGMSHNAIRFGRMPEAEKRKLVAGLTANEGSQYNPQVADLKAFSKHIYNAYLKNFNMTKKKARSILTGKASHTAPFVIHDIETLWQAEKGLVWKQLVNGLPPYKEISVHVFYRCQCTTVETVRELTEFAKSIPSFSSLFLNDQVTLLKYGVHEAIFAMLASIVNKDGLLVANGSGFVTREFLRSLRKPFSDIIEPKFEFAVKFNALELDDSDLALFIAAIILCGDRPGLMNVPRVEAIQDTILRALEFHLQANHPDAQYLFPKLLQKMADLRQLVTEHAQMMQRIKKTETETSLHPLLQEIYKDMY

HaCaT = experiment: Proliferation of non-cancer cell line HaCaT, flow cytometry; conditions: 20 microM, 48 hours of treatment
Protocol: A human cervical carcinoma cell line (HeLa) engineered to stably express a recombinant biosensor reporter activity and a non-cancer cell line, HaCaT (Boukamp et al., 1988, J. Cell Biol 106(3):761-771) was used with a Caspa Tag kit (commercially available eg from Chemicon). The detection of proliferation was carried out using a high content screening automated flow cytometer.
DPD (Substance 1) was diluted to 20 microM in cell culture medium without serum adjusted to 1% DMSO. Detection of cellular events was performed in duplicate in 96-well plates after 48 hours of treatment in the FL2 (dilution of a proliferative marker) channels of a HTS flow cytometer (FACS Calibur HTS, Becton Dickenson). At day 1, cells were seeded in 96 well plates. Cells were treated with DPD and the appropriate controls on day 2 and analysis was carried out on day 4.

increase of RXR transactivation (hRXRαLBD): no transactivation
PPAR gamma modulating activity, in words [1]: PPAR gamma agonist
activation of full-length hPPARdelta (full-length hPPARdelta): no activation was seen
Structure (SMILES): O=C(O)CC/C=C\C[C@@H]1CO[C@H](c2ccccc2Cl)O[C@@H]1c1ccccc1O (racemic) [SN1, 4-(Z)-6-(2-o-chlorophenyl-4-o-hydroxyphenyl-1,3-dioxan-cis-5-yl) hexenoic acid]
red staining in human pre-adipocytes (human pre-adipocytes): very little red staining
effect on the non-cancer cell line HaCaT (HaCaT): no effect
